Experimental data from ChEMBL document CHEMBL5724914, “Linking interpersonal differences in gut microbiota composition and drug biotransformation activity” (2024).

Settings: human gut metagenome, 24 h, 2 µM
Also: call rule not given here.

Bacterial Biotransformation	SMILES
Compound metabolized	CN1CC(=O)N2[C@H](c3ccc4c(c3)OCO4)c3[nH]c4ccccc4c3C[C@@H]2C1=O
Compound metabolized	COc1cc2nc(N(C)CCCNC(=O)C3CCCO3)nc(N)c2cc1OC (stereo not given) [ALFUZOSIN]
Compound NOT metabolized	CC(C)NCC(O)COc1ccc(CCOCC2CC2)cc1 (stereo not given) [BETAXOLOL]
Compound NOT metabolized	CS(=O)(=O)O.OC(CCN1CCCCC1)(c1ccccc1)c1ccccc1 [PRIDINOL METHANESULFONATE]
Compound NOT metabolized	CC(CN1c2ccccc2Sc2ccccc21)N(C)C (stereo not given) [PROMETHAZINE]
Compound NOT metabolized	COc1ccc(CCN(C)CCCC(C#N)(c2ccc(OC)c(OC)c2)C(C)C)cc1OC (stereo not given)
Compound metabolized	Cc1ccc(S(=O)(=O)NC(=O)NN2CCCCCC2)cc1 [TOLAZAMIDE]
Compound NOT metabolized	Fc1ccc([C@@H]2CCNC[C@H]2COc2ccc3c(c2)OCO3)cc1 [PAROXETINE]
Compound NOT metabolized	N#Cc1ccc(C(c2ccc(C#N)cc2)n2cncn2)cc1 [LETROZOLE]

SMILES	Bacterial Biotransformation
CN(C)C(=O)C(CCN1CCC(O)(c2ccc(Cl)cc2)CC1)(c1ccccc1)c1ccccc1 [LOPERAMIDE]	Compound metabolized

Settings: human gut metagenome, 24 h, 2 µM
Remark: another data set of the same source

Bacterial Biotransformation	SMILES
Compound metabolized	CN1CC(=O)N2[C@H](c3ccc4c(c3)OCO4)c3[nH]c4ccccc4c3C[C@@H]2C1=O
Compound metabolized	COc1cc2nc(N(C)CCCNC(=O)C3CCCO3)nc(N)c2cc1OC (stereo not given) [ALFUZOSIN]
Compound metabolized	CC(C)NCC(O)COc1ccc(CCOCC2CC2)cc1 (stereo not given) [BETAXOLOL]
Compound metabolized	CS(=O)(=O)O.OC(CCN1CCCCC1)(c1ccccc1)c1ccccc1 [PRIDINOL METHANESULFONATE]
Compound metabolized	CC(CN1c2ccccc2Sc2ccccc21)N(C)C (stereo not given) [PROMETHAZINE]
Compound metabolized	COc1ccc(CCN(C)CCCC(C#N)(c2ccc(OC)c(OC)c2)C(C)C)cc1OC (stereo not given)
Compound metabolized	Cc1ccc(S(=O)(=O)NC(=O)NN2CCCCCC2)cc1 [TOLAZAMIDE]
Compound metabolized	Fc1ccc([C@@H]2CCNC[C@H]2COc2ccc3c(c2)OCO3)cc1 [PAROXETINE]
Compound NOT metabolized	N#Cc1ccc(C(c2ccc(C#N)cc2)n2cncn2)cc1 [LETROZOLE]

SMILES	Bacterial Biotransformation
CN(C)C(=O)C(CCN1CCC(O)(c2ccc(Cl)cc2)CC1)(c1ccccc1)c1ccccc1 [LOPERAMIDE]	Compound metabolized

Settings: human gut metagenome, 24 h, 2 µM
Remark: another data set of the same source

Bacterial Biotransformation	SMILES
Compound NOT metabolized	CN1CC(=O)N2[C@H](c3ccc4c(c3)OCO4)c3[nH]c4ccccc4c3C[C@@H]2C1=O
Compound metabolized	COc1cc2nc(N(C)CCCNC(=O)C3CCCO3)nc(N)c2cc1OC (stereo not given) [ALFUZOSIN]
Compound NOT metabolized	CC(C)NCC(O)COc1ccc(CCOCC2CC2)cc1 (stereo not given) [BETAXOLOL]
Compound NOT metabolized	CS(=O)(=O)O.OC(CCN1CCCCC1)(c1ccccc1)c1ccccc1 [PRIDINOL METHANESULFONATE]
Compound NOT metabolized	CC(CN1c2ccccc2Sc2ccccc21)N(C)C (stereo not given) [PROMETHAZINE]
Compound metabolized	COc1ccc(CCN(C)CCCC(C#N)(c2ccc(OC)c(OC)c2)C(C)C)cc1OC (stereo not given)
Compound metabolized	Cc1ccc(S(=O)(=O)NC(=O)NN2CCCCCC2)cc1 [TOLAZAMIDE]
Compound NOT metabolized	Fc1ccc([C@@H]2CCNC[C@H]2COc2ccc3c(c2)OCO3)cc1 [PAROXETINE]
Compound NOT metabolized	N#Cc1ccc(C(c2ccc(C#N)cc2)n2cncn2)cc1 [LETROZOLE]

SMILES	Bacterial Biotransformation
CN(C)C(=O)C(CCN1CCC(O)(c2ccc(Cl)cc2)CC1)(c1ccccc1)c1ccccc1 [LOPERAMIDE]	Compound metabolized

Experiment: (§1) The drug is tested on WLS-069 corresponding to human gut metagenome with ENA study accession number: PRJEB37062 and ENA sample accession number: ERS12561748 for biotransformation under anaerobic condition. The drug concentrations were measured over 9 timepoints collected between 0 and 24 hours of incubation by liquid-chromatography-coupled mass spectrometry (LC–MS)
Settings: 2 µM

Bacterial Biotransformation	SMILES
Compound metabolized	CN1CC(=O)N2[C@H](c3ccc4c(c3)OCO4)c3[nH]c4ccccc4c3C[C@@H]2C1=O
Compound metabolized	COc1cc2nc(N(C)CCCNC(=O)C3CCCO3)nc(N)c2cc1OC (stereo not given) [ALFUZOSIN]
Compound NOT metabolized	CC(C)NCC(O)COc1ccc(CCOCC2CC2)cc1 (stereo not given) [BETAXOLOL]
Compound NOT metabolized	CS(=O)(=O)O.OC(CCN1CCCCC1)(c1ccccc1)c1ccccc1 [PRIDINOL METHANESULFONATE]
Compound metabolized	CC(CN1c2ccccc2Sc2ccccc21)N(C)C (stereo not given) [PROMETHAZINE]
Compound metabolized	COc1ccc(CCN(C)CCCC(C#N)(c2ccc(OC)c(OC)c2)C(C)C)cc1OC (stereo not given)
Compound metabolized	Cc1ccc(S(=O)(=O)NC(=O)NN2CCCCCC2)cc1 [TOLAZAMIDE]
Compound metabolized	Fc1ccc([C@@H]2CCNC[C@H]2COc2ccc3c(c2)OCO3)cc1 [PAROXETINE]
Compound NOT metabolized	N#Cc1ccc(C(c2ccc(C#N)cc2)n2cncn2)cc1 [LETROZOLE]

SMILES	Bacterial Biotransformation
CN(C)C(=O)C(CCN1CCC(O)(c2ccc(Cl)cc2)CC1)(c1ccccc1)c1ccccc1 [LOPERAMIDE]	Compound metabolized

Experiment: as §1, with “WLS-006” for “WLS-069”, “ERS12561741” for “ERS12561748”
Settings: 2 µM

Bacterial Biotransformation	SMILES
Compound metabolized	CN1CC(=O)N2[C@H](c3ccc4c(c3)OCO4)c3[nH]c4ccccc4c3C[C@@H]2C1=O
Compound metabolized	COc1cc2nc(N(C)CCCNC(=O)C3CCCO3)nc(N)c2cc1OC (stereo not given) [ALFUZOSIN]
Compound NOT metabolized	CC(C)NCC(O)COc1ccc(CCOCC2CC2)cc1 (stereo not given) [BETAXOLOL]
Compound metabolized	CS(=O)(=O)O.OC(CCN1CCCCC1)(c1ccccc1)c1ccccc1 [PRIDINOL METHANESULFONATE]
Compound metabolized	CC(CN1c2ccccc2Sc2ccccc21)N(C)C (stereo not given) [PROMETHAZINE]
Compound NOT metabolized	COc1ccc(CCN(C)CCCC(C#N)(c2ccc(OC)c(OC)c2)C(C)C)cc1OC (stereo not given)
Compound metabolized	Cc1ccc(S(=O)(=O)NC(=O)NN2CCCCCC2)cc1 [TOLAZAMIDE]
Compound NOT metabolized	Fc1ccc([C@@H]2CCNC[C@H]2COc2ccc3c(c2)OCO3)cc1 [PAROXETINE]
Compound NOT metabolized	N#Cc1ccc(C(c2ccc(C#N)cc2)n2cncn2)cc1 [LETROZOLE]

SMILES	Bacterial Biotransformation
CN(C)C(=O)C(CCN1CCC(O)(c2ccc(Cl)cc2)CC1)(c1ccccc1)c1ccccc1 [LOPERAMIDE]	Compound metabolized

Experiment: as §1, with “Z-009” for “WLS-069”, “pig” for “human”, “ERS12561809” for “ERS12561748”
Settings: 2 µM

Bacterial Biotransformation	SMILES
Compound metabolized	CN1CC(=O)N2[C@H](c3ccc4c(c3)OCO4)c3[nH]c4ccccc4c3C[C@@H]2C1=O
Compound metabolized	COc1cc2nc(N(C)CCCNC(=O)C3CCCO3)nc(N)c2cc1OC (stereo not given) [ALFUZOSIN]
Compound NOT metabolized	CC(C)NCC(O)COc1ccc(CCOCC2CC2)cc1 (stereo not given) [BETAXOLOL]
Compound NOT metabolized	CS(=O)(=O)O.OC(CCN1CCCCC1)(c1ccccc1)c1ccccc1 [PRIDINOL METHANESULFONATE]
Compound NOT metabolized	CC(CN1c2ccccc2Sc2ccccc21)N(C)C (stereo not given) [PROMETHAZINE]
Compound metabolized	COc1ccc(CCN(C)CCCC(C#N)(c2ccc(OC)c(OC)c2)C(C)C)cc1OC (stereo not given)
Compound metabolized	Cc1ccc(S(=O)(=O)NC(=O)NN2CCCCCC2)cc1 [TOLAZAMIDE]
Compound metabolized	Fc1ccc([C@@H]2CCNC[C@H]2COc2ccc3c(c2)OCO3)cc1 [PAROXETINE]
Compound NOT metabolized	N#Cc1ccc(C(c2ccc(C#N)cc2)n2cncn2)cc1 [LETROZOLE]

SMILES	Bacterial Biotransformation
CN(C)C(=O)C(CCN1CCC(O)(c2ccc(Cl)cc2)CC1)(c1ccccc1)c1ccccc1 [LOPERAMIDE]	Compound metabolized

Settings: human gut metagenome, 24 h, 2 µM
Remark: another data set of the same source

Bacterial Biotransformation	SMILES
Compound NOT metabolized	CN1CC(=O)N2[C@H](c3ccc4c(c3)OCO4)c3[nH]c4ccccc4c3C[C@@H]2C1=O
Compound NOT metabolized	COc1cc2nc(N(C)CCCNC(=O)C3CCCO3)nc(N)c2cc1OC (stereo not given) [ALFUZOSIN]
Compound NOT metabolized	CC(C)NCC(O)COc1ccc(CCOCC2CC2)cc1 (stereo not given) [BETAXOLOL]
Compound NOT metabolized	CS(=O)(=O)O.OC(CCN1CCCCC1)(c1ccccc1)c1ccccc1 [PRIDINOL METHANESULFONATE]
Compound NOT metabolized	CC(CN1c2ccccc2Sc2ccccc21)N(C)C (stereo not given) [PROMETHAZINE]
Compound metabolized	COc1ccc(CCN(C)CCCC(C#N)(c2ccc(OC)c(OC)c2)C(C)C)cc1OC (stereo not given)
Compound metabolized	Cc1ccc(S(=O)(=O)NC(=O)NN2CCCCCC2)cc1 [TOLAZAMIDE]
Compound NOT metabolized	Fc1ccc([C@@H]2CCNC[C@H]2COc2ccc3c(c2)OCO3)cc1 [PAROXETINE]
Compound NOT metabolized	N#Cc1ccc(C(c2ccc(C#N)cc2)n2cncn2)cc1 [LETROZOLE]

SMILES	Bacterial Biotransformation
CN(C)C(=O)C(CCN1CCC(O)(c2ccc(Cl)cc2)CC1)(c1ccccc1)c1ccccc1 [LOPERAMIDE]	Compound metabolized

Settings: human gut metagenome, 24 h, 2 µM
Remark: another data set of the same source

Bacterial Biotransformation	SMILES
Compound metabolized	CN1CC(=O)N2[C@H](c3ccc4c(c3)OCO4)c3[nH]c4ccccc4c3C[C@@H]2C1=O
Compound metabolized	COc1cc2nc(N(C)CCCNC(=O)C3CCCO3)nc(N)c2cc1OC (stereo not given) [ALFUZOSIN]
Compound metabolized	CC(C)NCC(O)COc1ccc(CCOCC2CC2)cc1 (stereo not given) [BETAXOLOL]
Compound metabolized	CS(=O)(=O)O.OC(CCN1CCCCC1)(c1ccccc1)c1ccccc1 [PRIDINOL METHANESULFONATE]
Compound metabolized	CC(CN1c2ccccc2Sc2ccccc21)N(C)C (stereo not given) [PROMETHAZINE]
Compound metabolized	COc1ccc(CCN(C)CCCC(C#N)(c2ccc(OC)c(OC)c2)C(C)C)cc1OC (stereo not given)
Compound metabolized	Cc1ccc(S(=O)(=O)NC(=O)NN2CCCCCC2)cc1 [TOLAZAMIDE]
Compound metabolized	Fc1ccc([C@@H]2CCNC[C@H]2COc2ccc3c(c2)OCO3)cc1 [PAROXETINE]
Compound NOT metabolized	N#Cc1ccc(C(c2ccc(C#N)cc2)n2cncn2)cc1 [LETROZOLE]

SMILES	Bacterial Biotransformation
CN(C)C(=O)C(CCN1CCC(O)(c2ccc(Cl)cc2)CC1)(c1ccccc1)c1ccccc1 [LOPERAMIDE]	Compound metabolized

Experiment: as §1, with “WLS-077” for “WLS-069”, “ERS12561750” for “ERS12561748”
Settings: 2 µM

Bacterial Biotransformation	SMILES
Compound metabolized	CN1CC(=O)N2[C@H](c3ccc4c(c3)OCO4)c3[nH]c4ccccc4c3C[C@@H]2C1=O
Compound NOT metabolized	COc1cc2nc(N(C)CCCNC(=O)C3CCCO3)nc(N)c2cc1OC (stereo not given) [ALFUZOSIN]
Compound NOT metabolized	CC(C)NCC(O)COc1ccc(CCOCC2CC2)cc1 (stereo not given) [BETAXOLOL]
Compound NOT metabolized	CS(=O)(=O)O.OC(CCN1CCCCC1)(c1ccccc1)c1ccccc1 [PRIDINOL METHANESULFONATE]
Compound NOT metabolized	CC(CN1c2ccccc2Sc2ccccc21)N(C)C (stereo not given) [PROMETHAZINE]
Compound NOT metabolized	COc1ccc(CCN(C)CCCC(C#N)(c2ccc(OC)c(OC)c2)C(C)C)cc1OC (stereo not given)
Compound metabolized	Cc1ccc(S(=O)(=O)NC(=O)NN2CCCCCC2)cc1 [TOLAZAMIDE]
Compound NOT metabolized	Fc1ccc([C@@H]2CCNC[C@H]2COc2ccc3c(c2)OCO3)cc1 [PAROXETINE]
Compound NOT metabolized	N#Cc1ccc(C(c2ccc(C#N)cc2)n2cncn2)cc1 [LETROZOLE]

SMILES	Bacterial Biotransformation
CN(C)C(=O)C(CCN1CCC(O)(c2ccc(Cl)cc2)CC1)(c1ccccc1)c1ccccc1 [LOPERAMIDE]	Compound metabolized
